The subject of the assay is BDF1 mice, M5076 sarcoma s.c., survival/tumor T/C. Kind of assay: NCI In Vivo Anticancer Drug Screen. Data for tumor model Sarcoma M5076 (subcutaneous) in B6D2F1 (BDF1) mice. The procedure:
The antitumor activity of compounds was measured in mice bearing transplantable tumors. Survival or tumor size were measured and the results are expressed as the measurement made in the treated group (T) divided by the measurement made in the vehicle treated control group (C). The tumor model used in this assay is Sarcoma M5076 (subcutaneous) in B6D2F1 (BDF1) mice

[1] abbreviates: endpoint: median survival time, dose: 50.0 mg/kg/injection, schedule: Q01DX009 (ip), vehicle: saline with Tween-80, higher = longer survival.
[2] abbreviates: endpoint: median survival time, dose: 100.0 mg/kg/injection, schedule: Q01DX009 (ip), vehicle: saline with Tween-80, higher = longer survival.
The mark [3] stands for this setting: endpoint: median survival time, dose: 200.0 mg/kg/injection, schedule: Q01DX009 (ip), vehicle: saline with Tween-80, higher = longer survival.

Values joined by “and” are separate entries in the source; they are usually repeats but may differ in a detail not shown here. Identical values can stand only once. Inconclusive results are not listed.

In the case of `CN1C(=O)CN2CCc3ccccc3C2c2cc(Cl)ccc21` (configuration not stated), the T/C by setting is: under setting [1], 99 % of control; under setting [2], 102 % of control; under setting [3], 105 % of control.
Turning to `COC(=O)C(Cc1ccccc1)NS(=O)(=O)c1ccc(C)cc1` (configuration not stated), the T/C runs as follows: under setting [1], 98 % of control; under setting [2], 106 % of control; under setting [3], 97 % of control; (endpoint: median tumor weight (est.), dose: 100.0 mg/kg/injection, schedule: Q01DX009 (ip), vehicle: saline with Tween-80, higher = larger tumour) 118 % of control.
In the case of `COc1cc(C(C)(C)C)cc(OC)c1C(O)(c1c(OC)cc(C(C)(C)C)cc1OC)c1c(OC)cc(C(C)(C)C)cc1OC`, the T/C is 95 % of control (endpoint: median survival time, dose: 50.0 mg/kg/injection, schedule: Q04DX003 (ip), vehicle: saline with Tween-80, higher = longer survival) and 102 % of control (endpoint: median survival time, dose: 100.0 mg/kg/injection, schedule: Q04DX003 (ip), vehicle: saline with Tween-80, higher = longer survival).
Turning to `CC1(C)N=C(N)N=C(N)N1c1ccc(CCCCc2ccc(S(=O)(=O)F)cc2Cl)c(Cl)c1`, the T/C reads like this: (endpoint: median survival time, dose: 1.8 mg/kg/injection, schedule: Q01DX005 (iv), vehicle: other, higher = longer survival) 97 % of control; (endpoint: median survival time, dose: 3.7 mg/kg/injection, schedule: Q01DX001 (iv), vehicle: other, higher = longer survival) 107 % of control; (endpoint: median survival time, dose: 3.7 mg/kg/injection, schedule: Q01DX005 (iv), vehicle: other, higher = longer survival) 97 % of control; (endpoint: median survival time, dose: 5.18 mg/kg/injection, schedule: Q01DX009 (ip), vehicle: other, higher = longer survival) 162 % of control; (endpoint: median survival time, dose: 5.4 mg/kg/injection, schedule: Q01DX009 (ip), vehicle: other, higher = longer survival) 151 % of control; (endpoint: median survival time, dose: 7.5 mg/kg/injection, schedule: Q01DX001 (iv), vehicle: other, higher = longer survival) 91 % of control. Also, the T/C runs as follows: (endpoint: median survival time, dose: 7.5 mg/kg/injection, schedule: Q01DX005 (iv), vehicle: other, higher = longer survival) 114 % of control; (endpoint: median survival time, dose: 8.0 mg/kg/injection, schedule: Q01DX009 (ip), vehicle: other, higher = longer survival) 151 % of control; (endpoint: median survival time, dose: 8.64 mg/kg/injection, schedule: Q01DX009 (ip), vehicle: other, higher = longer survival) 176 % of control; (endpoint: median survival time, dose: 10.0 mg/kg/injection, schedule: Q01DX009 (ip), vehicle: saline with Tween-80, higher = longer survival) 150 % of control; (endpoint: median survival time, dose: 14.4 mg/kg/injection, schedule: Q01DX009 (ip), vehicle: other, higher = longer survival) 190 % of control; (endpoint: median survival time, dose: 15.0 mg/kg/injection, schedule: Q01DX001 (ip), vehicle: other, higher = longer survival) 110 % of control. The T/C was 124 % of control (endpoint: median survival time, dose: 15.0 mg/kg/injection, schedule: Q01DX005 (ip), vehicle: other, higher = longer survival); 89 % of control (endpoint: median survival time, dose: 15.0 mg/kg/injection, schedule: Q01DX009 (oral), vehicle: other, higher = longer survival); 155 % of control (endpoint: median survival time, dose: 20.0 mg/kg/injection, schedule: Q01DX009 (ip), vehicle: other, higher = longer survival); 177 % of control (endpoint: median survival time, dose: 20.0 mg/kg/injection, schedule: Q01DX009 (ip), vehicle: saline with Tween-80, higher = longer survival); 168 % of control (endpoint: median survival time, dose: 27.0 mg/kg/injection, schedule: Q01DX009 (ip), vehicle: saline with Tween-80, higher = longer survival); 103 % of control (endpoint: median survival time, dose: 30.0 mg/kg/injection, schedule: Q01DX001 (ip), vehicle: other, higher = longer survival). For the same compound, the T/C is, setting by setting: (endpoint: median survival time, dose: 30.0 mg/kg/injection, schedule: Q01DX001 (oral), vehicle: other, higher = longer survival) 110 % of control; (endpoint: median survival time, dose: 30.0 mg/kg/injection, schedule: Q01DX005 (oral), vehicle: other, higher = longer survival) 97 % of control; (endpoint: median survival time, dose: 30.0 mg/kg/injection, schedule: Q01DX009 (ip), vehicle: other, higher = longer survival) 169 % of control; (endpoint: median survival time, dose: 30.0 mg/kg/injection, schedule: Q01DX009 (oral), vehicle: other, higher = longer survival) 120 % of control; (endpoint: median survival time, dose: 40.0 mg/kg/injection, schedule: Q01DX009 (ip), vehicle: saline with Tween-80, higher = longer survival) 163 % of control and 217 % of control and 232 % of control; (endpoint: median survival time, dose: 60.0 mg/kg/injection, schedule: Q01DX001 (ip), vehicle: other, higher = longer survival) 111 % of control. Moreover, the T/C by setting is: (endpoint: median survival time, dose: 60.0 mg/kg/injection, schedule: Q01DX001 (oral), vehicle: other, higher = longer survival) 97 % of control; (endpoint: median survival time, dose: 60.0 mg/kg/injection, schedule: Q01DX005 (oral), vehicle: other, higher = longer survival) 117 % of control; (endpoint: median survival time, dose: 60.0 mg/kg/injection, schedule: Q01DX009 (ip), vehicle: saline with Tween-80, higher = longer survival) 204 % of control and 239 % of control; (endpoint: median survival time, dose: 60.0 mg/kg/injection, schedule: Q01DX009 (oral), vehicle: other, higher = longer survival) 114 % of control; (endpoint: median survival time, dose: 62.0 mg/kg/injection, schedule: Q01DX009 (ip), vehicle: saline with Tween-80, higher = longer survival) 255 % of control; (endpoint: median survival time, dose: 89.0 mg/kg/injection, schedule: Q01DX009 (ip), vehicle: saline with Tween-80, higher = longer survival) 224 % of control. Also, the T/C reads like this: (endpoint: median survival time, dose: 120.0 mg/kg/injection, schedule: Q01DX001 (oral), vehicle: other, higher = longer survival) 97 % of control; (endpoint: median survival time, dose: 120.0 mg/kg/injection, schedule: Q01DX005 (oral), vehicle: other, higher = longer survival) 116 % of control; (endpoint: median survival time, dose: 120.0 mg/kg/injection, schedule: Q01DX009 (oral), vehicle: other, higher = longer survival) 104 % of control; (endpoint: median survival time, dose: 240.0 mg/kg/injection, schedule: Q01DX001 (ip), vehicle: other, higher = longer survival) 123 % of control; (endpoint: median survival time, dose: 240.0 mg/kg/injection, schedule: Q01DX001 (oral), vehicle: other, higher = longer survival) 109 % of control; (endpoint: median survival time, dose: 240.0 mg/kg/injection, schedule: Q01DX005 (oral), vehicle: other, higher = longer survival) 117 % of control. Moreover, the T/C reads like this: (endpoint: median survival time, dose: 240.0 mg/kg/injection, schedule: Q01DX009 (oral), vehicle: other, higher = longer survival) 110 % of control; (endpoint: median survival time, dose: 480.0 mg/kg/injection, schedule: Q01DX001 (oral), vehicle: other, higher = longer survival) 100 % of control; (endpoint: median survival time, dose: 480.0 mg/kg/injection, schedule: Q01DX005 (oral), vehicle: other, higher = longer survival) 109 % of control; (endpoint: median survival time, dose: 480.0 mg/kg/injection, schedule: Q01DX009 (oral), vehicle: other, higher = longer survival) 124 % of control.
`COc1ccc(/C=N/OC(=S)NC2CCCCC2)cc1OC`: the T/C is, setting by setting: under setting [1], 102 % of control; under setting [2], 86 % of control; under setting [3], 92 % of control.
In the case of `Nc1ccc(N2N=C(N3CCCC3)CC2=O)cc1`, the T/C is, setting by setting: under setting [1], 100 % of control; under setting [2], 99 % of control; under setting [3], 94 % of control; (endpoint: median tumor weight (est.), dose: 50.0 mg/kg/injection, schedule: Q01DX009 (ip), vehicle: saline with Tween-80, higher = larger tumour) 112 % of control; (endpoint: median tumor weight (est.), dose: 200.0 mg/kg/injection, schedule: Q01DX009 (ip), vehicle: saline with Tween-80, higher = larger tumour) 80 % of control.
With `NC1=NC(O)C=C1` (configuration not stated), the T/C runs as follows: (endpoint: median survival time, dose: 5.0 mg/kg/injection, schedule: Q01DX009 (ip), vehicle: saline, higher = longer survival) 103 % of control; (endpoint: median survival time, dose: 10.0 mg/kg/injection, schedule: Q01DX009 (ip), vehicle: saline, higher = longer survival) 96 % of control; (endpoint: median survival time, dose: 20.0 mg/kg/injection, schedule: Q01DX009 (ip), vehicle: saline, higher = longer survival) 94 % of control; (endpoint: median survival time, dose: 40.0 mg/kg/injection, schedule: Q01DX009 (ip), vehicle: saline, higher = longer survival) 96 % of control; (endpoint: median survival time, dose: 80.0 mg/kg/injection, schedule: Q01DX009 (ip), vehicle: saline, higher = longer survival) 103 % of control; (endpoint: median tumor weight (est.), dose: 5.0 mg/kg/injection, schedule: Q01DX009 (ip), vehicle: saline, higher = larger tumour) 115 % of control. Moreover, the T/C is 63 % of control (endpoint: median tumor weight (est.), dose: 10.0 mg/kg/injection, schedule: Q01DX009 (ip), vehicle: saline, higher = larger tumour); 169 % of control (endpoint: median tumor weight (est.), dose: 20.0 mg/kg/injection, schedule: Q01DX009 (ip), vehicle: saline, higher = larger tumour); 96 % of control (endpoint: median tumor weight (est.), dose: 40.0 mg/kg/injection, schedule: Q01DX009 (ip), vehicle: saline, higher = larger tumour); 68 % of control (endpoint: median tumor weight (est.), dose: 80.0 mg/kg/injection, schedule: Q01DX009 (ip), vehicle: saline, higher = larger tumour).
`CO[C@@]12[C@H](COC(N)=O)C3=C(C(=O)C(C)=C(N)C3=O)N1C[C@@H]1N[C@@H]12`: the T/C is, setting by setting: (endpoint: median survival time, dose: 0.38 mg/kg/injection, schedule: Q04DX006 (ip), vehicle: saline, higher = longer survival) 105 % of control; (endpoint: median survival time, dose: 0.75 mg/kg/injection, schedule: Q02DX033 (ip), vehicle: saline, higher = longer survival) 154 % of control; (endpoint: median survival time, dose: 0.75 mg/kg/injection, schedule: Q04DX006 (ip), vehicle: saline, higher = longer survival) 103 % of control; (endpoint: median survival time, dose: 1.5 mg/kg/injection, schedule: Q02DX033 (ip), vehicle: saline, higher = longer survival) 92 % of control; (endpoint: median survival time, dose: 3.0 mg/kg/injection, schedule: Q04DX006 (ip), vehicle: saline, higher = longer survival) 101 % of control.

(Values after PubChem BioAssay AID288 (DTP/NCI, 2004).)
